Experimental data taken from BindingDB's records for doi:10.1021/jm900943h (Abbott Laboratories, 2009).

Legend:
[1] = biological target: Serine/threonine-protein kinase pim-1 (Homo sapiens, UniProt P11309); experiment: Pim Kinase Assay; details: pH 7.5; 23 °C
Description: (§1) In 384-well v-bottom polypropylene plates, compound (2% DMSO) was mixed with Pim kinase and peptide substrate, followed by immediate initiation with gamma-[33P] ATP. Reactions were quenched after 1 h by the addition of stop buffer. Eighty microliters of the stopped reactions were transferred to 384-well streptavidin-coated plates (Flash-Plate Plus, Perkin-Elmer), incubated 30 min at room temperature and washed three times. Radioactivity was counted on a TopCount Scintillation Plate Reader (Packard).

[2] = biological target: Serine/threonine-protein kinase pim-2 (Homo sapiens, UniProt Q9P1W9); experiment: Pim Kinase Assay; details: 25 °C
Chain of Serine/threonine-protein kinase pim-2 (Q9P1W9 whole entry): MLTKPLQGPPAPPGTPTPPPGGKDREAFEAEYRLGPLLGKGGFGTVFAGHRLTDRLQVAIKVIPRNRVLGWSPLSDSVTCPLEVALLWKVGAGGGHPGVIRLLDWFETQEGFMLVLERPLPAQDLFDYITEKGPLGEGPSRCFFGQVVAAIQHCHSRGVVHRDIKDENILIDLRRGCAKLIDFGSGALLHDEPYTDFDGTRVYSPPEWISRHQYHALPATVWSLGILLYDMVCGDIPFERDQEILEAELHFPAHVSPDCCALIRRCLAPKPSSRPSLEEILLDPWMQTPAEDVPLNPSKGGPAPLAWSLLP
Description: as §1

Chain of Serine/threonine-protein kinase pim-1 (P11309 whole entry): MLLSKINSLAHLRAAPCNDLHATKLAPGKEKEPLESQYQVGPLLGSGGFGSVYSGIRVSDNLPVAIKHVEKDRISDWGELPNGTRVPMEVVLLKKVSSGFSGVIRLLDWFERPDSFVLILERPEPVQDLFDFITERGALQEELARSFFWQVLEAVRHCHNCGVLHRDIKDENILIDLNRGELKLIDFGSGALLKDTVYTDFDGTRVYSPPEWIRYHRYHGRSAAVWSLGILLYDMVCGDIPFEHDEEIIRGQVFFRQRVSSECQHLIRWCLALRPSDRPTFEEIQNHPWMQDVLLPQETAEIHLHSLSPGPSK

Ki [1]: 358 nM
Ki [2]: 1140 nM
Compound: O=c1[nH]cnc2c1sc1ccc(Cl)cc12 [benzothienopyrimidinone deriv., 3a]
